# Where a SMILES comes first, the peptide text is derived from it.
# How the values were obtained:
# PMNs = experiment: PMN oxidative burst (SOD-inhibitable reduction of cytochrome c); assay type: cell-based, human; conditions: TNF-α-primed adherent PMNs; peptide 20 μg/ml, dhCB 1 μg/ml
# Method: Oxidative burst of adherent PMNs was quantified by measuring the superoxide dismutase (SOD)-inhibitable reduction of cytochrome c as described (67). Briefly, PMNs (1.5×10^6/ml in HBSS-0.1% human serum albumin) were incubated in polypropylene tubes (1 hour; 37° C.) in a shaking water bath with or without the PAK peptide (20 μg/ml). PMNs were transferred to a fibrinogen-coated 96 well tissue culture plate. Cytochrome c (1.44 mg/ml) and catalase (0.062 mg/ml) (both Sigma) were added to wells with or without TNF-alpha (10 U/ml). Optical density was measured at indicated times against matched controls with SOD at 550 nm. Some PMNs were treated with dihydrocytochalasin B (dhCB) (1 μg/ml) to disrupt cell spreading on the surface (68). These samples served as negative control.
# [1] = In vivo distribution of the PAK inhibitory peptide (flow cytometry); conditions: for uptake of peptide by blood neutrophils: 12 hours before sample
# Method: Six hours after injection, PAK-positive cells were identified by flow cytometry and their expression of CD31 and CD45 was determined. In additional experiments, mice inhaled LPS after an intraperitoneal injection of the fluorescent PAK peptide. Twelve hours later, PMNs were identified in blood, lungs, and BAL by their expression of CD45, GR-1, and 7/4 and investigated for their peptide uptake. In some experiments, lungs from these mice were fixed for confocal microscopy.
# [2] = test system: LPS-induced PMN migration into the lung; experiment: Murine model of acute lung injury: LPS-induced PMN trafficking in the lung; conditions: application of the peptide in mice in vivo
# Method: Wild type male C57B1/6 mice were obtained from Jackson Labs (Bar Harbor, Me.). […] Mice were eight to twelve weeks of age. Up to four mice were exposed to aerosolized LPS in a custom-built cylindrical chamber (20×9 cm) connected to an air nebulizer (MicroAir, Omron Healthcare, Vernon Hills, Ill.). […] Control mice were exposed to saline aerosol.
# PMN recruitment into the different compartments of the lung pulmonary vasculature, interstitium, alveolar airspace) was assessed as described (81). […] After 5 minutes, mice were euthanized and non-adherent PMN were removed from the pulmonary vasculature by flushing 10 ml of PBS at 25 cm H20 through the spontaneously beating right ventricle. BAL was withdrawn and lungs were removed, minced, and digested in the presence of excess unlabeled anti-GR-1 to prevent possible binding of the injected antibody to extravascular PMN. A cell suspension was prepared by passing the digested lungs through a 70 μm cell strainer (BD Falcon, Bedford, Mass.). Total cells in BAL and lung were counted and percentage of PMNs determined by flow cytometry. […] In the lung, the expression of GR-1 was used to distinguish intravascular (CD45+7/4+GR-1^+) from interstitial (CD45+7/4+GR-1^−) PMNs, which were not reached by the injected antibody 82.
# adaptor protein Nck = adaptor protein Nck (UniProt P16333); experiment: cell-based or functional assay
compound,measurement,setting,value
C=C1[C@@H](C)[C@H]2[C@H](Cc3ccccc3)NC(=O)[C@]23OC(=O)CC[C@H](O)CCC[C@@H](C)C/C=C/[C@H]3[C@@H]1O [dihydrocytochalasin B],adhesion-induced oxidative burst (superoxide production),PMNs,reduced
CSCC[C@H](NC(=O)[C@@H](NC(=O)[C@H](CO)NC(=O)[C@@H](NC(=O)[C@H](CC(N)=O)NC(=O)[C@H](CCCNC(=N)N)NC(=O)[C@H](CCSC)NC(=O)[C@@H]1CCCN1C(=O)[C@@H]1CCCN1C(=O)[C@H](C)NC(=O)[C@@H]1CCCN1C(=O)[C@@H]1CCCN1C(=O)[C@H](CCCCN)NC(=O)CNC(=O)[C@H](CCCNC(=N)N)NC(=O)[C@H](CCCNC(=N)N)NC(=O)[C@H](CCCNC(=N)N)NC(=O)[C@H](CCC(N)=O)NC(=O)[C@H](CCCNC(=N)N)NC(=O)[C@H](CCCNC(=N)N)NC(=O)[C@H](CCCCN)NC(=O)[C@H](CCCCN)NC(=O)[C@H](CCCNC(=N)N)NC(=O)CNC(=O)[C@@H](N)Cc1ccc(O)cc1)[C@@H](C)O)[C@@H](C)O)C(=O)O [tat-PAK peptide] (H-YGRKKRRQRRRGKPPAPPMRNTSTM-OH; N-terminus and C-terminus assumed),PMNs in the BAL containing peptide,"[1]; i.v. 1 mg, 12 h, LPS",almost all neutrophils found in the BAL are non-fluorescent
same,PMNs in the lung containing peptide,"[1]; i.v. 1 mg, 12 h, LPS",one-third
same,uptake of peptide by blood neutrophils,[1]; i.v. 1 mg,taken up by neutrophils
same,uptake of peptide by blood neutrophils,"[1]; i.v. 1 mg, listed as PAK peptide",most PMNs are PAK peptide+
same,share of peptide-positive lung cells that are CD45 positive,"[1]; intraperitoneal, six hours after injection, lung cell suspension",80%
same,adverse side effects,[2],no apparent adverse side effects
tat-PAK peptide (inhibitory PAK peptide; first proline-rich domain of PAK fused to the HIV TAT transduction sequence),F-actin content in CXCL1-stimulated human PMNs (flow cytometry),adaptor protein Nck,30 fold
